Measurements from the NIST ThermoML archive (doi:10.1016/j.tca.2011.06.020).

Columns and labels:
[1] = excess molar enthalpy (molar enthalpy of mixing); xn = mol fraction of the nth substance listed; conditions: 308.15 K, 101 kPa, Liquid, Drop calorimetry
[2] = xn = mol fraction of the nth substance listed; conditions: 101 kPa, Liquid; for speed of sound: Sing-around technique in a fixed-path interferometer; for mass density: Vibrating tube method

Cc1ccccc1N [2-methylaniline] + CNC=O
[1]
Conditions	excess molar enthalpy [kcal/mol]
x1 = 0.0486	-0.0402
x1 = 0.0972	-0.0749
x1 = 0.1358	-0.101
x1 = 0.1888	-0.126
x1 = 0.2267	-0.145
x1 = 0.2786	-0.16
x1 = 0.3432	-0.175
x1 = 0.3972	-0.182
x1 = 0.4209	-0.183
x1 = 0.4811	-0.181
x1 = 0.5306	-0.175
x1 = 0.5822	-0.162
x1 = 0.6225	-0.153
x1 = 0.6788	-0.138
x1 = 0.7121	-0.124
x1 = 0.7826	-0.0967
x1 = 0.8127	-0.0858
x1 = 0.8455	-0.0712

[2]
Conditions	mass density, 298.15 K [kg/m3]	mass density, 303.15 K [kg/m3]	mass density, 308.15 K [kg/m3]	speed of sound, 298.15 K [m/s]	speed of sound, 303.15 K [m/s]	speed of sound, 308.15 K [m/s]
x1 = 0.0656	1000.18	995.882	991.55	1454.3	1438.4	1423.3
x1 = 0.1258	1000.98	996.704	992.418	1472.4	1456.3	1440.9
x1 = 0.1673	1001.39	997.124	992.87	1484.1	1467.8	1452.2
x1 = 0.2127	1001.71	997.464	993.254	1496	1479.7	1463.8
x1 = 0.2466	1001.88	997.65	993.459	1504.4	1488.2	1471.9
x1 = 0.2789	1001.99	997.753	993.588	1512.1	1495.7	1479.4
x1 = 0.3081	1002.03	997.811	993.675	1518.6	1502.3	1485.7
x1 = 0.3356	1002.04	997.839	993.709	1524.4	1508.2	1491.4
x1 = 0.3898	1001.96	997.768	993.664	1535.2	1518.9	1501.9
x1 = 0.4383	1001.79	997.624	993.525	1544	1527.6	1510.4
x1 = 0.4802	1001.56	997.416	993.334	1551.1	1534.6	1517.2
x1 = 0.5269	1001.25	997.104	993.02	1558.2	1541.5	1524.1
x1 = 0.5599	1000.97	996.843	992.76	1562.9	1545.9	1528.5
x1 = 0.6006	1000.59	996.484	992.392	1568.2	1551.1	1533.6
x1 = 0.6519	1000.02	995.935	991.837	1574.4	1556.7	1539.2
x1 = 0.7244	999.105	995.043	990.907	1582.2	1563.4	1546
x1 = 0.7904	998.148	994.083	989.937	1588.2	1568.3	1550.9
x1 = 0.8485	997.204	993.14	988.977	1592.8	1571.9	1554.2
x1 = 1	994.351	990.224	986.069	1602.6	1577.8	1558.4

CNC=O [N-methylformamide] + C1CCOCC1
[1]
Conditions	excess molar enthalpy [kcal/mol]
x2 = 0.0662	0.00815
x2 = 0.1805	0.0293
x2 = 0.2254	0.0372
x2 = 0.2892	0.0493
x2 = 0.3252	0.0564
x2 = 0.3743	0.064
x2 = 0.4016	0.0666
x2 = 0.4724	0.0749
x2 = 0.5114	0.0772
x2 = 0.5562	0.0781
x2 = 0.5923	0.0776
x2 = 0.6242	0.0747
x2 = 0.6675	0.0727
x2 = 0.7153	0.0658
x2 = 0.7576	0.0603
x2 = 0.7901	0.0533
x2 = 0.8152	0.0482
x2 = 0.8676	0.0367

[2]
Conditions	mass density, 298.15 K [kg/m3]	mass density, 303.15 K [kg/m3]	mass density, 308.15 K [kg/m3]	speed of sound, 298.15 K [m/s]	speed of sound, 303.15 K [m/s]	speed of sound, 308.15 K [m/s]
x2 = 0	999.004	994.653	990.302	1432.9	1417.7	1402.5
x2 = 0.0822	984.359	979.949	975.601	1411.8	1396.4	1380.7
x2 = 0.1587	971.886	967.407	963.009	1394	1377.9	1361.7
x2 = 0.2344	960.487	955.945	951.454	1377.9	1361	1344.4
x2 = 0.2633	956.359	951.788	947.263	1372.1	1355	1338.1
x2 = 0.3005	951.208	946.607	942.041	1365	1347.4	1330.3
x2 = 0.3572	943.711	939.057	934.409	1354.5	1336.5	1319.1
x2 = 0.3814	940.623	935.944	931.277	1350.3	1332	1314.5
x2 = 0.4163	936.288	931.584	926.867	1344.4	1325.8	1308
x2 = 0.4334	934.212	929.494	924.763	1341.6	1322.9	1305
x2 = 0.4851	928.124	923.354	918.566	1333.4	1314.3	1296.1
x2 = 0.5122	925.036	920.247	915.428	1329.3	1310	1291.6
x2 = 0.5693	918.752	913.91	909.049	1321	1301.3	1282.6
x2 = 0.6064	914.817	909.949	905.053	1315.9	1296	1277
x2 = 0.6571	909.625	904.722	899.79	1309.1	1289	1269.6
x2 = 0.6988	905.507	900.569	895.605	1303.8	1283.5	1263.7
x2 = 0.7315	902.361	897.401	892.421	1299.8	1279.3	1259.3
x2 = 0.7743	898.361	893.366	888.365	1294.7	1273.9	1253.5
x2 = 0.8468	891.856	886.811	881.763	1286.4	1265.1	1244.1
